Data on one compound can be found in patent US20190247361A1, “OXYTOCIN ANTAGONIST DOSING REGIMENS FOR PROMOTING EMBRYO IMPLANTATION AND PREVENTING MISCARRIAGE” (ObsEva S.A., priority 2016, published 2019).

Holding throughout (assay type): in vitro ADME
Data set [1] relates to cytochrome P450 in combination with UGT. Description: microsomal stability, pooled liver microsomes, cytochrome P450 in combination with UGT. To be noted: 45 minute experiment. The method, then: (§1) At five time points over the course of a 45 minute experiment, the compounds were analyzed by liquid chromatography and tandem mass spectrometry (LC-MS/MS). Intrinsic clearance values (CLint) with standard error (SE CLint) and metabolic half-life (t1/2) were calculated and are indicated in Table 9, below.
(In general: Liver microsomes are vesicles of endoplasmic reticulum, rich in cytochrome P450 enzymes.)

The target of another data set is CYP2C19 (Homo sapiens, UniProt P33261). Description: metabolism by CYP2C19 isoform. To be noted: for Compound Remaining (% of compound present at t = 0 min): 5 μM. The procedure: (§2) At five time points over the course of a 45 minute experiment, the compounds were analyzed by LC-MS/MS. The percentage of each compound remaining at each time point, along with the metabolic half-lives of each compound in the presence of each cytochrome P450 isoform, are indicated in Tables 10-12, below.

A further data set has as its target CYP3A4 (Homo sapiens, UniProt P08684). Kind of data set: metabolism by CYP3A4 isoform. To be noted: for Compound Remaining (% of compound present at t = 0 min): 5 μM. The method, then: as §2
For the next data set, the system named is cytochrome P450. Description: microsomal stability, pooled liver microsomes, cytochrome P450 alone. To be noted: 45 minute experiment. The method, then: as §1
The target of the next data set is CYP2D6 (Homo sapiens, UniProt P10635). Kind of data set: metabolism by CYP2D6 isoform. To be noted: for Compound Remaining (% of compound present at t = 0 min): 5 μM. The method, then:
as §2

Sequence of CYP3A4 (P08684 whole entry, canonical isoform): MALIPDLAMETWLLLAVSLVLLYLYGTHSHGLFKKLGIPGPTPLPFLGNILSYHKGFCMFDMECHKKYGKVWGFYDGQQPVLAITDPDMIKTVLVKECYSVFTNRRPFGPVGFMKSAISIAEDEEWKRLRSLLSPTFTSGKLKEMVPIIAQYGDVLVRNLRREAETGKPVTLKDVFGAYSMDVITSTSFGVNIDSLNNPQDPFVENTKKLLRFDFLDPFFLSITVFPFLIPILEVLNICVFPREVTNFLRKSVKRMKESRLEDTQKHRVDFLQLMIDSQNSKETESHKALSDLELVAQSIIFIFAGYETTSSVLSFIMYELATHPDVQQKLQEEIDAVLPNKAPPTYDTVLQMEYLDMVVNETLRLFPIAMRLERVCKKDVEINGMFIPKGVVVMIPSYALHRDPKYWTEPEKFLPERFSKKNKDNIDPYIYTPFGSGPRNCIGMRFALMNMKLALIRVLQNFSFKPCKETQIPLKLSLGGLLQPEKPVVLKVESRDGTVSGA
Sequence of CYP2C19 (P33261 whole entry, canonical isoform): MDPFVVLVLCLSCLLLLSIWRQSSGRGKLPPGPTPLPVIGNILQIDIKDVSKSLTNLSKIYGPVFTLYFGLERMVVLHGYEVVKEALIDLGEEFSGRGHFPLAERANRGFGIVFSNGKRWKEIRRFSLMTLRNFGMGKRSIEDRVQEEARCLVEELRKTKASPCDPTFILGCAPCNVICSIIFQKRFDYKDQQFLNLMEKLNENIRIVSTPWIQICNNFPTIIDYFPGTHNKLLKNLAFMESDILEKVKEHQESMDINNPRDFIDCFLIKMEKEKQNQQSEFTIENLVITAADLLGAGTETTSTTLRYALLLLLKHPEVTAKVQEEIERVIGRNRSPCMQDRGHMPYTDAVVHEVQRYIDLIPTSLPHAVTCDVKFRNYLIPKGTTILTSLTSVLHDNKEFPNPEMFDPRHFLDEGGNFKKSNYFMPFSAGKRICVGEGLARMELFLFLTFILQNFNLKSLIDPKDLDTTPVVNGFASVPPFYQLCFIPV
Sequence of CYP2D6 (P10635 whole entry, canonical isoform): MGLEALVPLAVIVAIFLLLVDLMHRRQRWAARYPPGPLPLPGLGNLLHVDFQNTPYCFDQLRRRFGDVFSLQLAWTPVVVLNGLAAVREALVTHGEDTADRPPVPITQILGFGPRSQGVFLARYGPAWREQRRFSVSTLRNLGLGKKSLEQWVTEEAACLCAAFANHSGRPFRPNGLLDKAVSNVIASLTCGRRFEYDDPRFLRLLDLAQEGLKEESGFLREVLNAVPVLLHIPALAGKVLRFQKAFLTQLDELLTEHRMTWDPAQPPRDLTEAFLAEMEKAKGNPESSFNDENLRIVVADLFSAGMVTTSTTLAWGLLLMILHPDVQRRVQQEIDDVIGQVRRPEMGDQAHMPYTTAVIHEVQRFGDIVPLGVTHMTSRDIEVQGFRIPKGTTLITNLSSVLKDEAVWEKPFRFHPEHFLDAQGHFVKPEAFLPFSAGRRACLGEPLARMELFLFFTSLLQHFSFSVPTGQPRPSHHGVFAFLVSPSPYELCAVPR

Regarding `CO/N=C1\C[C@@H](CO)N(C(=O)c2ccc(-c3ccccc3C)cc2)C1` [(3E) isomer, (3E,5S)-5-(hydroxymethyl)-1-[(2′-methyl-1,1′-biphenyl-4-yl)carbonyl]pyrrolidin-3-one O-methyloxime, reference compound], the microsomal CLint at 3 μM in data set [1] (read-out: CLint, Metabolic Stability - CYP/UGT) is 5.38 µL/min/mg; in the data set on cytochrome P450 (read-out: CLint, Metabolic Stability - CYP), 6.4 µL/min/mg. Further, the half-life at 3 μM was found to be 4.3 h in data set [1] (read-out: t1/2, Metabolic Stability - CYP/UGT) and 3.6 h in the data set on cytochrome P450 (read-out: t1/2, Metabolic Stability - CYP). In addition, the “Compound Remaining (% of compound present at t = 0 min)” value came to 100% at CYP2C19 (0 min); 87.6% on CYP2C19 (5 min); 82.7% at CYP2C19 (15 min); 57.1% at CYP2C19 (30 min); 47.4% at CYP2C19 (45 min); 100% on CYP3A4 (0 min). In addition, the “Compound Remaining (% of compound present at t = 0 min)” value on CYP3A4 (5 min) is 107%; on CYP3A4 (15 min), 88.8%; on CYP3A4 (30 min), 92.5%; on CYP3A4 (45 min) it was 92.2%; on CYP2D6 (0 min), 100%; on CYP2D6 (5 min) it was 49.3%. Further, the figures for the “Compound Remaining (% of compound present at t = 0 min)” value at CYP2D6 (15 min), at CYP2D6 (30 min) and at CYP2D6 (45 min) were 14.1%, 2.43% and 0.845%, respectively. The figures for the half-life at 5 μM at CYP2C19 (human), on CYP3A4 (human) and on CYP2D6 (human) were 0.69 h, 4.68 h and 5.62 min, respectively.
